Test results published in publication PMC3885546, “Structural Determinants of the 5′-Methylthioinosine Specificity of Plasmodium Purine Nucleoside Phosphorylase” (PLoS ONE, 2014).
Read-outs that look alike come from different tables or passages of the source. Marks after values point to notes of the source that are not given here.

Key:
[1] = target: TgPNPWT; details: TgPNP WT, ref Chaudhary, et al. [18], cited from earlier work
[2] = system: P. falciparum; details: purine-rich environment of cultured red blood cells; cited from earlier work
[3] = target: T1, Pf Val66Ile PNP (Plasmodium falciparum, UniProt Q8I3X4, V66I); assay: Inhibition by immucillins (initial and slow onset); type: biochemical; details: slow onset
T1 construct: made in house; host or cells: Escherichia coli Top 10
Experimental: (§1) Kinetic assays were completed in 50 mM KH2PO4 at pH 7.4 measuring phosphorylysis of inosine or MTI by PNP in a coupled reaction with 60 milliunits/ml xanthine oxidase to convert hypoxanthine to uric acid. […] Assays were performed with excess substrate in the presence of inhibitors. Inhibition studies measured both initial (Ki) and slow onset inhibition (Ki*) for inhibitors. The initial onset inhibition was analyzed by using the following equation: ν ο = (k cat×S)/(K m(1+I/Ki)+S), ν ο is the steady state rate, k cat catalytic rate, S is substrate concentration, Km is Michealis constant for inosine, I is inhibitor concentration, and Ki is the equilibrium dissociation constant.

[4] = target: T2, Pf V66I:V73I PNP (Plasmodium falciparum, UniProt Q8T9Z7, V66I/V73I); assay: Inhibition by immucillins (initial and slow onset); type: biochemical; details: initial
T2 construct: made in house; host or cells: Escherichia coli Top 10
Experimental: as §1

[5] = target: T3, Pf V66I:V73I:Y160F PNP (Plasmodium falciparum, UniProt Q8T9Z7, V66I/V73I/Y160F); assay: Inhibition by immucillins (initial and slow onset); type: biochemical; details: initial
T3 construct: made in house; host or cells: Escherichia coli Top 10
Experimental: as §1

[6] = target: T4, Pf Tyr160Phe PNP (Plasmodium falciparum, UniProt Q8T9Z7, Y160F); assay: Inhibition by immucillins (initial and slow onset); type: biochemical; details: initial
T4 construct: made in house; host or cells: Escherichia coli Top 10
Experimental: as §1

[7] = system: P. falciparum; set-up: method as in PMID 22096507; details: Aotus model; cited from earlier work
[8] = system: PfPNP versus mammalian PNP; set-up: method as in PMID 15576366; details: cited from earlier work
[9] = system: TgPNPWT; assay: Inhibition by immucillins (literature values); type: biochemical, Toxoplasma gondii; details: TgPNP versus PfPNP
[10] = substrate: OC[C@H]1O[C@@H](n2cnc3c(O)ncnc32)[C@H](O)[C@@H]1O; assay: Substrate kinetics, xanthine oxidase coupled phosphorolysis assay; type: biochemical, Plasmodium falciparum; details: other: wild type PfPNP, substrate = label, 50 mM KH2PO4 pH 7.4, mean ± SD
Experimental: Kinetic assays were completed in 50 mM KH2PO4 at pH 7.4 measuring phosphorylysis of inosine or MTI by PNP in a coupled reaction with 60 milliunits/ml xanthine oxidase to convert hypoxanthine to uric acid. Formation of uric acid was measured at 293 nm wavelength (E293 = 12.9 mM^−1 cm^−1), [20]. In cases where activity for MTI was low, increased protein concentration (10 µg/ml) was used to check enzyme function. Assays were performed with excess substrate in the presence of inhibitors. Inhibition studies measured both initial (Ki) and slow onset inhibition (Ki*) for inhibitors. The initial onset inhibition was analyzed by using the following equation: ν ο = (k cat×S)/(K m(1+I/Ki)+S), ν ο is the steady state rate, k cat catalytic rate, S is substrate concentration, Km is Michealis constant for inosine, I is inhibitor concentration, and Ki is the equilibrium dissociation constant.

[11] = target: the molecule itself; assay: SEC; Superose 12 gel filtration, 0.1 ml of 1 mg/ml loaded, 20 mM HEPES, 50 mM KCl, 5 mM KH2PO4, 0.1 mM DTT, pH 7.4, 0.5 ml/min; self-association (hexamer)
[12] = target: the molecule itself; assay: crystal structure; V66I:V73I:Y160F PfPNP with ImmH and phosphate, 2.8 Å, space group I4(1)32, 2 molecules in the asymmetric unit; hexamer as a trimer of dimers

T2 sequence (Q8T9Z7 whole entry V66I/V73I): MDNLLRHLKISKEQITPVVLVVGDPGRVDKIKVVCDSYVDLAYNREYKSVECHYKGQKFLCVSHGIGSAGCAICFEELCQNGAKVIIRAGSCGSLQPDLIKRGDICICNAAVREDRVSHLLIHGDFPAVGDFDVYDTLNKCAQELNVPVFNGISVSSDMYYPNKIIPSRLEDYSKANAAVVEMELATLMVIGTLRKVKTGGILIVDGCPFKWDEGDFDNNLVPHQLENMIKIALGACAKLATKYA
T3 sequence (Q8T9Z7 whole entry V66I/V73I/Y160F): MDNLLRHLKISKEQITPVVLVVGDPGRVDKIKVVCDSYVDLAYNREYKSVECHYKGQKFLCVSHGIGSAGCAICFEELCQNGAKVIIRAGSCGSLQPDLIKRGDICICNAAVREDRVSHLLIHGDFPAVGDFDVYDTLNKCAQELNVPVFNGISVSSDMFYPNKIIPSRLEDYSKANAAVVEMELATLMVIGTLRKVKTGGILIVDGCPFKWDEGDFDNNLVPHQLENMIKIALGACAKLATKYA
T4 sequence (Q8T9Z7 whole entry Y160F): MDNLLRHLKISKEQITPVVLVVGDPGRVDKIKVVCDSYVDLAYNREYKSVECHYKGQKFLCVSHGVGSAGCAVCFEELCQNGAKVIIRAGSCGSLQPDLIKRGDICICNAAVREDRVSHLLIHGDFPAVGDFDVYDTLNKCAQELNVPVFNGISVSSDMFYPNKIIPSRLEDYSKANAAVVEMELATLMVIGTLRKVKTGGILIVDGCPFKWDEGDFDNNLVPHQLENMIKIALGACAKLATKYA
T1 sequence (Q8I3X4 whole entry V66I): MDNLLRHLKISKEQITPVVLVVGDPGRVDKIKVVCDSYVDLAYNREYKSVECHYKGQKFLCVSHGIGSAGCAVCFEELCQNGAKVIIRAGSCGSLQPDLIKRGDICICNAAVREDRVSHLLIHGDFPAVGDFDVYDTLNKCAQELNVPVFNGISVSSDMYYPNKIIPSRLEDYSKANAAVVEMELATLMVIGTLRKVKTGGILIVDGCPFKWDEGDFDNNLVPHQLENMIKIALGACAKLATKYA

## O=c1[nH]cnc2c([C@@H]3N[C@H](CO)[C@@H](O)[C@H]3O)c[nH]c12 [ImmH, Immucillin-H]
[1]; initial
  Ki: 450 nM
[1]; slow onset
  Ki: 2 nM
[2]
  effect on P. falciparum: causes P. falciparum cell death by purine starvation
[3]
  Ki*: (-) ^c
[4]
  Ki: 270 nM
[5]
  Ki: 3.6 nM
[6]
  Ki: 0.93 nM

## Nc1nc2c(CN3C[C@H](CO)[C@@H](O)C3)c[nH]c2c(=O)[nH]1 [DADMe-Immucillin-G]
[7]
  efficacy against P. falciparum: effective against P. falciparum in the Aotus model

## CSC[C@H]1N[C@@H](c2c[nH]c3c(=O)[nH]cnc23)[C@H](O)[C@@H]1O [MT-ImmH, 5′-methylthioimmucillin-H]
[8]
  greater specificity for PfPNP versus mammalian PNP: 100 fold
[1]; initial
  Ki: 7100 nM
[1]; slow onset
  Ki: 290 nM
[9]
  less effective for TgPNP than for PfPNP (Ki*): more than 160 fold

B1: PfPNP (wild type) (Plasmodium falciparum 3D7) (protein)
chain: MDNLLRHLKISKEQITPVVLVVGDPGRVDKIKVVCDSYVDLAYNREYKSVECHYKGQKFLCVSHGVGSAGCAVCFEELCQNGAKVIIRAGSCGSLQPDLIKRGDICICNAAVREDRVSHLLIHGDFPAVGDFDVYDTLNKCAQELNVPVFNGISVSSDMYYPNKIIPSRLEDYSKANAAVVEMELATLMVIGTLRKVKTGGILIVDGCPFKWDEGDFDNNLVPHQLENMIKIALGACAKLATKYA
notes: made in house; host or cells: Escherichia coli Top 10
[10]
  Km: 11 ± 5 µM
  kcat: 1.7 ± 0.7 s⁻¹
  kcat/Km: 150000 M⁻¹ s⁻¹

B2: Plasmodium falciparum purine nucleoside phosphorylase (PfPNP), wild type (enzyme, Plasmodium falciparum (3D7 strain))
chain: DNLLRHLKISKEQITPVVLVVGDPGRVDKIKVVCDSYVDLAYNREYKSVECHYKGQKFLCVSHGVGSAGCAVCFEELCQNGAKVIIRAGSCGSLQPDLIKRGDICICNAAVREDRVSHLLIHGDFPAVGDFDVYDTLNKCAQELNVPVFNGISVSSDMYYPNKIIPSRLEDYSKANAAVVEMELATLMVIGTLRKVKTGGILIVDGCPFKWDEGDFDNNLVPHQLENMIKIALGACAKLATKYA
notes: purine nucleoside phosphorylase of P. falciparum 3D7; also called PfPNP WT; wild-type PfPNP; source: E. coli Top 10, purified (Ni-NTA); not shown: c-Myc, C-terminal, kept; His6, C-terminal, kept
[11]
  stoichiometry N: 6

B3: V66I:V73I:Y160F PfPNP (triple mutant Val66Ile:Val73Ile:Tyr160Phe) (enzyme)
chain: DNLLRHLKISKEQITPVVLVVGDPGRVDKIKVVCDSYVDLAYNREYKSVECHYKGQKFLCVSHGIGSAGCAICFEELCQNGAKVIIRAGSCGSLQPDLIKRGDICICNAAVREDRVSHLLIHGDFPAVGDFDVYDTLNKCAQELNVPVFNGISVSSDMFYPNKIIPSRLEDYSKANAAVVEMELATLMVIGTLRKVKTGGILIVDGCPFKWDEGDFDNNLVPHQLENMIKIALGACAKLATKYA
notes: also called Pf V66I:V73I:Y160F; triple PfPNP mutant; source: E. coli Top 10, purified (Ni-NTA; Superdex 200 for larger scale); not shown: c-Myc, C-terminal, kept; His6, C-terminal, kept
[12]
  stoichiometry N: 6
